Like-named read-outs stand apart in the source and are kept apart here.
Legend:
[1] = Brain and plasma exposure following IV and PO administration to mice; format: in vivo; conditions: mice; for Projected free brain @ 10 mpk / Brain Cmax @ 10 mpk: 10 mg/kg PO; for half-life / clearance: mouse, plasma; for clearance: read-out: IV PK Cl (converted)
Experimental: Compounds were dosed in mice at either 10 mg/kg or 30 mg/kg PO, and were dosed at 1 mg/kg IV. Three animals for collection at each time point for plasma via bleeding at 0.25, 0.5, 1, 4, 12 and 24 h. Terminal bleeding for plasma and sampling for brain at 0.25, 0.5, 1, 4, 12 and 24 h (also three animals per brain exposure time point group). Total of six time points for plasma and six time points for brain.
Plasma: The animal was restrained manually at the designated time points, approximately 150 μL blood/time point was collected into K2EDTA tube via retro orbital puncture or cardiac puncture under anesthesia with Isoflurane. The blood sample was centrifuged (2000 g, 4° C., 5 min) to generate plasma within 30 min after bleeding.
Brain: At the designated time points, a mid-line incision was made in the animals scalp and the skin was retracted. Using small bone cutters and rongeurs, removed the skull overlying the brain. Removed the brain using a spatula and rinse with cold saline. Placed the brain in screw-top tubes, and then stored the tubes under −70° C. until analysis.

HDAC2 [2] = molecular target: T1, HDAC2 (Homo sapiens (Human), UniProt Q92769); experiment: HDAC2 enzymatic inhibition assay in SY5Y cell lysate (HDAC-Glo 2); format: cell-based; conditions: SH-SY5Y cells, five hours incubation
Experimental: SH-SY5Y cells (Sigma) were cultured in Eagle's Modified Essential Medium supplemented with 10% fetal bovine serum and pen/strep. Twenty-four hours prior to compound dosing 20 uL of cells were plated in white 384 well plates at a density of 1,500 cells/well. Compounds were serially diluted in neat DMSO and then diluted 1:100 v/v into media without FBS and mixed. Media was removed from the plated cells and the diluted compounds in serum free media (1% v/v final DMSO) were added and incubated at 37.0 for five hours. Ten uL of HDAC-Glo 2 reagent with 0.1% Triton X-100 was then added, the plate was mixed and allowed to develop at room temperature for 100 minutes. Plates were then read with a Spectramax LMax luminometer employing a 0.4 s integration time. Dose response curves were constructed with normalized data where CI-994 at 100 uM was defined as 100% inhibition and DMSO alone as 0% inhibition.

[3] = tested on: human erythroid progenitors (CFU-E, BFU-E); experiment: Erythroid CFU assay (colony forming cell assay, bone marrow); format: cell-based; conditions: 14 days in culture
Experimental: (§1) Compounds were tested to evaluate the potential effects on human erythroid and myeloid progenitors using colony forming cell assays. Clonogenic progenitors of human erythroid (CFU-E, BFU-E), granulocyte-monocyte (CFU-GM) and multipotential (CFU-GEMM) lineages were assessed in a semi-solid methylcellulose-based media formulation containing rhlL-3 (10 ng/mL), rhGM-SCF (10 ng/mL), rhSCF (50 ng/mL) and Epo (3 U/mL).
(§2) Normal human bone marrow light density cells derived from normal bone marrow (NorCal Biologics, California), were stored in the gaseous phase of liquid nitrogen (−152° C.) until required for the assay. On the day of the experiment, the cells were thawed rapidly, the contents of each vial was diluted in 10 mL of Iscove's modified Dulbecco's medium containing 10% fetal bovine serum (IMDM+10% FBS) and washed by centrifugation (approximately 1200 r.p.m. for 10 minutes, room temperature). The supernatant was discarded and the cell pellets resuspended in a known volume of IMDM+10% FBS. A cell count (3% glacial acetic acid) and viability assessment (trypan blue exclusion test) was performed for the bone marrow sample.
(§3) On the day of the experiment, the compounds were dissolved in DMSO to a stock concentration of 10 mM. Serial dilutions were prepared from the stock concentration to achieve concentrations of 2 and 0.4 mM. When added to the methylcellulose-based media at 1:1000 (v/v), the final test concentrations of 10, 2 and 0.4 μM were achieved. Additionally, 5-FU was evaluated at 1.0, 0.1 and 0.01 μg/mL.
(§4) Clonogenic progenitors of the human erythroid (CFU-E and BFU-E) and myeloid (CFU-GM) lineages were set up in the methylcellulose-based media formulations described above. All compounds were added to the medium to give the final desired concentrations (10, 2 and 0.4 μM). 5-Fluorouracil (Sigma Aldrich) was used as a positive control for progenitor proliferation (inhibition of colony growth) and was introduced to the human bone marrow cultures at 1.0, 0.1, and 0.01 μg/mL. Solvent control cultures (containing no compound but 0.1% DMSO) as well as standard controls (containing no compound and no DMSO) were also initiated.
(§5) Human myeloid and erythroid progenitor assays were initiated at 2.0×10^4 cells per culture. Following 14 days in culture, myeloid and erythroid colonies were assessed microscopically and scored by trained personnel. The colonies were divided into the following categories based on size and morphology: CFU-E, BFU-E, CFU-GM and CFU-GEMM.
(§6) The mean±one standard deviation of three replicate cultures was calculated for progenitors of each category (CFU-E, BFU-E, etc.). Two-tailed t-tests were performed to assess if there was a difference in the number of colonies generated between solvent control and treated cultures. Due to the potential subjectivity of colony enumeration, a p value of less than 0.01 is deemed significant. To calculate the concentration of 50% inhibition of colony growth (IC50) for each compound, a dose response curve was generated plotting the log of the compound concentration versus the percentage of control colony growth using XLfit software (IDBS). The concentration of 50% inhibition of colony growth (IC50) was calculated based on the sigmoid curve fit using Dose-Response, One-Site Model formula: y=A+[(B−A)/(1+((C/x)^D))], where A=the initial value (baseline response), B=maximum response, C=center (drug concentration that provokes a response halfway between A and B) and D=slope of the curve at midpoint. Further, plots and additional dose response curves were generated using GraphPad Prism 7.0.
(§7) Erythroid (CFU-E and BFU-E), myeloid (CFU-GM) and multi-potential (CFU-GEMM) colony enumeration was performed by trained personnel. The distribution of colony types as well as general colony and cellular morphology was analyzed. For statistical analysis colony numbers in compound treated cultures were compared to the solvent control cultures. […]

[4] = tested on: human myeloid progenitors (CFU-GM); experiment: Myeloid CFU assay (colony forming cell assay, bone marrow); format: cell-based; conditions: 14 days in culture
Experimental: as §1, §2, §3, §4, §5, §6, §7

HDAC1 = HDAC1 (Homo sapiens (Human), UniProt Q13547); experiment: HDAC1 enzymatic assay (Caliper LabChip, peptide deacetylation); format: biochemical; conditions: 17 hours, 25° C.
Experimental: (§8) The following describes an assay protocol for measuring the deacetylation of a peptide substrate by the enzymes HDAC2 or HDAC1. Enzyme, substrate, and cofactors are combined in a well of a microtiter plate and incubated for […] at 25° C. At the end of the incubation, the reaction is quenched by the addition of an SDS-containing buffer. Substrate and product are separated and quantified electrophoretically using the microfluidic-based LabChip 3000 Drug Discovery System from Caliper Life Sciences. The peptide substrate used in this assay is FAM-TSRHK(AC)KL-CONH2 (FAM is carboxyfluorescein). Peptide should be >98% purity by Capillary Electrophoresis. • 1. To a well of a 384-well plate, add 5 μL of 2× enzyme buffer. Using Labcyte Echo 550, add 100 nl compound. Enzyme and compound may be pre-incubated at this time if desired. • 2. Add 5 μL of 2× substrate buffer. • 3. Incubate plate at 25° C. for 17 hours. • 4. Terminate reaction by adding 40 μL of 1.55× stop buffer. • 5. Create job on a Caliper LabChip® 3000 Drug Discovery System. • 6. Load the plate and start electrophoresis using blue laser (480 nm) for excitation and green CCD (520 nm) for detection (CCD2). Reaction time=17 hours; Reaction temperature=25° C.
1% DMSO (from compound) 1 μM FAM-TSRHK(AC)KL-CONH2 5 nM HDAC Enzyme (specific activity may vary from lot-to-lot, and enzyme concentration may need to be adjusted to yield˜10-20% conversion of substrate to product).
Substrate and product peptides present in each sample are separated electrophoretically using the LabChip 3000 capillary electrophoresis instrument. As substrate and product peptides are separated, two peaks of fluorescence are observed. Change in the relative fluorescence intensity of the substrate and product peaks is the parameter measured, reflecting enzyme activity. Capillary electrophoregramms (RDA acquisition files) are analyzed using HTS Well Analyzer software (Caliper Life Sciences). The […] in each sample is determined as the product to sum ratio (PSR): P/(S+P), where P is the peak height of the product peptide and S is the peak height of the substrate peptide. For each compound, enzyme activity is measured at various concentrations (12 concentrations of compound spaced by 3× dilution intervals). Negative control samples (0%-inhibition in the absence of inhibitor) and positive control samples (100%-inhibition, in the presence of 20 mM EDTA) are assembled in replicates of four and are used to calculate %-inhibition values for each compound at each concentration. Percent inhibition (Pinh) is determined using following equation: Pinh=(PSR0%−PSRinh)/(PSR0%−PSR100%)*100, where PSRinh is the product sum ratio in the presence of inhibitor, PSR0% is the average product sum ration in the absence of inhibitor and PSR100% is the average product sum ratio in 100%-inhibition control samples.
The IC50 values of inhibitors are determined by fitting the inhibition curves (Pinh versus inhibitor concentration) by 4 parameter sigmoidal dose-response model using XLfit 4 software (IBDS).
In the table, “A” indicates a […] of between 0.1 μM and 0.5 μM and “B” a Kd value of greater than 0.5 μM and less than or equal to 5.0 μM.

HDAC2 [5] = molecular target: T1, HDAC2; experiment: HDAC2 enzymatic assay (Caliper LabChip, peptide deacetylation); format: biochemical; conditions: 17 hours, 25° C.
Experimental: as §8, with “Load the plate and start electrophoresis using blue laser (480 nm) for excitation and green CCD (520 nm) for detection (CCD2). Reaction time=17 hours; Reaction temperature=25° C.” left out
Substrate and product peptides present in each sample are separated electrophoretically using the LabChip 3000 capillary electrophoresis instrument. As substrate and product peptides are separated, two peaks of fluorescence are observed. Change in the relative fluorescence intensity of the substrate and product peaks is the parameter measured, reflecting enzyme activity. Capillary electrophoregramms (RDA acquisition files) are analyzed using HTS Well Analyzer software (Caliper Life Sciences). The […] in each sample is determined as the product to sum ratio (PSR): P/(S+P), where P is the peak height of the product peptide and S is the peak height of the substrate peptide. For each compound, enzyme activity is measured at various concentrations (12 concentrations of compound spaced by 3× dilution intervals). […]
The IC50 values of inhibitors are determined by fitting the inhibition curves (Pinh versus inhibitor concentration) by 4 parameter sigmoidal dose-response model using XLfit 4 software (IBDS). […]

[6] = iv, 1 mg/kg, 1 mg/kg IV, read-out: IV PK T1/2 (converted)
[7] = po, 10 mg/kg, PO, read-out: PO T1/2 (converted)

T1 sequence (Q92769 whole entry): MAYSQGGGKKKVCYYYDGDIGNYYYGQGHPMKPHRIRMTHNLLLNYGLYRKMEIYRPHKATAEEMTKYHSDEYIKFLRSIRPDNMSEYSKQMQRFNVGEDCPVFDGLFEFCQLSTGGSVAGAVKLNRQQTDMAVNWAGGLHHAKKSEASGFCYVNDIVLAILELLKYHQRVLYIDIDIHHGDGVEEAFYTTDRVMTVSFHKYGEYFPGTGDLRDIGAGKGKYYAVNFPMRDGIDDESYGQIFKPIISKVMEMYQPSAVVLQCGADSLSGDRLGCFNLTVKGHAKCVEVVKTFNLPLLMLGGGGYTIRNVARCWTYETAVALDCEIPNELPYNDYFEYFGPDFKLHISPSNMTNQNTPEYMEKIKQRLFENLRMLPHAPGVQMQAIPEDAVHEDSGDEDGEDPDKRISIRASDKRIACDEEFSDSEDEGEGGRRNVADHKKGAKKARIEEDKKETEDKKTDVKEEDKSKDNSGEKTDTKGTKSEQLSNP
Chain of HDAC1 (Q13547 whole entry): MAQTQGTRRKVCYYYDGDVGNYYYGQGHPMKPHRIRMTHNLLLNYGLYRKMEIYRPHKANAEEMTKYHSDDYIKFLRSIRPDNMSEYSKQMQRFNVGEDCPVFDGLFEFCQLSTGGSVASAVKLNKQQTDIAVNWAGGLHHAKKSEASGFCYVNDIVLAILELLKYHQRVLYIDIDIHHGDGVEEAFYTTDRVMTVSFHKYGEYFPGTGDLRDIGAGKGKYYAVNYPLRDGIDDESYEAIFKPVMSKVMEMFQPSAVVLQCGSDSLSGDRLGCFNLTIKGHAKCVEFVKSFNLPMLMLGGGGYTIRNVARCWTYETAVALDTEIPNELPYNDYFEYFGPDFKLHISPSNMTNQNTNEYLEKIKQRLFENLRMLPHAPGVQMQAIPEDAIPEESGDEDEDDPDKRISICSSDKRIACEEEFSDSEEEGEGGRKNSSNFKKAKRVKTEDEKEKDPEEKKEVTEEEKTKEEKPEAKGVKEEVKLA

SMILES	half-life [1, 6]	half-life [1, 7]	clearance ([1]; 1 mg/kg IV)	IC50 (HDAC2 [2])	Erythroid % control @ 10 uM dose [3]	Myeloid % control @ 10 uM dose [4]	other results
Cc1ncc(-c2ccc(N)c(NC(=O)N3Cc4cn(C)nc4C3)n2)s1 [Compound 4]	1.86 h	2.12 h	8.93 mL/min/kg	100 to 1000 nM	53%	96%	Projected free brain @ 10 mpk [1]: 0.479 µM; Brain Cmax @ 10 mpk ([1]; brain): 324 ng/g
COCc1cc2c(cn1)CN(C(=O)Nc1nc(-c3ccc(F)cc3)ccc1N)C2 [Comparator 5, reference compound]	–	–	–	–	22.9%	58.9%	–
Nc1ccc(-c2ccc(F)cc2)nc1NC(=O)N1Cc2cncnc2C1 [Comparator 1, reference compound]	–	–	–	–	47.1%	83.9%	Projected free brain @ 10 mpk (uM) (*scaled for comparison) ([1]; dosed 30 mg/kg PO, scaled to 10 mg/kg PO): 0.111* uM; Brain Cmax @ 10 mpk ng/g (*scaled for comparison) ([1]; dosed 30 mg/kg PO, scaled to 10 mg/kg PO, brain): 158* ng/g
Nc1ccc(-c2cccnc2)nc1NC(=O)N1Cc2cnc(CC(F)F)cc2C1 [Compound 15]	–	–	–	100 to 1000 nM	–	–	–
Nc1ccc(-c2cccnc2)nc1NC(=O)N1Cc2cnc(C(F)F)cc2C1 [Compound 16]	–	–	–	> 1500 nM	–	–	–
Cn1cc2c(n1)CN(C(=O)Nc1nc(-c3ccc(F)cc3)ccc1N)C2 [Comparator 2, reference compound]	–	–	–	–	15.7%	30.4%	–
Cn1cc2c(n1)CN(C(=O)Nc1nc(-c3cccnc3)ccc1N)C2 [Compound 11]	7.53 h	2.9 h	17.8 mL/min/kg	100 to 1000 nM	94%	103%	Projected free brain @ 10 mpk [1]: 0.664 µM; Brain Cmax @ 10 mpk ([1]; brain): 369 ng/g
Cc1nc2c(n1C)CN(C(=O)Nc1nc(-c3ccc(F)cc3)ccc1N)C2 [Compound 7]	3.06 h	2.95 h	28.5 mL/min/kg	100 to 1000 nM	–	–	Projected free brain @ 10 mpk [1]: 0.050 µM; Brain Cmax @ 10 mpk ([1]; brain): 102 ng/g
Nc1ccc(-c2ccc(F)cc2F)nc1NC(=O)N1Cc2cn(C3COC3)nc2C1 [Compound 6]	–	–	–	100 to 1000 nM	–	–	IC50 (HDAC1): 500 to 5000 nM; IC50 (HDAC2 [5]): 500 to 5000 nM
Nc1ccc(-c2cccs2)nc1NC(=O)N1Cc2cncnc2C1 [Comparator 6]	0.152 h	0.557 h	139 mL/min/kg	–	–	–	–
Cc1cc2c(cn1)CN(C(=O)Nc1nc(-c3ccc(F)cc3)ccc1N)C2 [Comparator 3, reference compound]	–	–	–	–	25.7%	66.1%	–
